US11304919B2, “Utilization of cilastatin in inhibiting renal disorder” (NIIGATA UNIVERSITY, priority 2018, dated 2022)

Legend:
C57BL/6J mice = assay: Inhibition of contrast-induced renal injuries in murine contrast nephropathy model (Example 2); format: in vivo, mouse
Method: In order to confirm the ability of cilastatin to inhibit renal injuries, C57BL/6J mice were simultaneously administered with an iodinated contrast medium and cilastatin, and the results were analyzed.
Left kidneys were extracted from the C57BL/6J mice, and 14 days later, right kidney pedicles were ligated for 30 minutes. Thereafter, reperfusion was carried out. […]
a) Contrast medium+cilastatin-treated group: 200 μL of iomeprol (CM)+400 mg/kg cilastatin (CS) (100 LL) b) Contrast medium+normal saline-treated group: 200 μL of iomeprol (CM)+100 μL of NS For each of the groups, after 48 hours from the medication, blood and urine samples were collected, and serum Cr, MN and cystatin C levels, and urinary Cr, NAG and KIM-1 levels were measured. Further, right kidneys were extracted and histologically evaluated by immunostaining with KIM-1 and staining with PAS. […] Serum cystatin C and urinary KIM-1 measurements were contracted to Oriental Yeast Co., Ltd.
0.5±: Clear but weak granular staining present focally along the luminal surface of non-atrophic proximal tubules 1+: Clear but weak granular staining completely surrounding the luminal surface of non-atrophic proximal tubules 2+: Moderately intense granular staining completely surrounding the luminal surface of non-atrophic proximal tubules and extending into intercellular junctions 3+: Strong large granular staining completely surrounding the luminal surface of non-atrophic proximal tubules and extending into intercellular junctions […]
Individuals meeting these criteria were regarded as individuals with onset of contrast nephropathy.

[1] = tested on: protein of interest (carrier; megalin ligand); assay: Binding of contrast solid-phased magnetic beads to carrier protein, WB (Reference Example 5); details: 0/3/10 mM iomeprol solid-phased beads; protein 25 ng/μL; 4° C., 4 h; FIG. 21
Text: A substance that can serve as a carrier for an iodinated contrast medium was selected by reference to the information reported on megalin ligands. To be specific, one protein known to be filtered at the glomeruli and resorbed by renal proximal tubular epithelial cells via megalin was selected among megalin ligands.
The binding specificity between this protein and an iodinated contrast medium was verified using contrast solid-phased magnetic beads by following the procedures described below.
Five milligrams each of the 0 mM/3 mM/10 mM contrast solid-phased beads prepared in Reference Example 4 were dispersed and washed according to the procedure described in Reference Example 4. Next, the protein of interest (produced by LifeSpan BioSciences, Inc.) was dissolved in 100 mM KCL to prepare a 25 ng/μL solution. The above-washed beads were each dispersed in 200 μL of the prepared solution and reacted at 4° C. for 4 hours. Then, heat-eluted samples were prepared by following the procedure described in Reference Example 4.
The procedures for sample electrophoresis and WB analysis were performed in accordance with Reference Example 4. An antibody against the protein of interest (a polyclonal antibody produced by Bioss Inc.) was added at a concentration of 2 μg/mL and reacted at room temperature for 2 hours.

Q: For `CN(C(=O)CO)c1c(I)c(C(=O)NCC(O)CO)c(I)c(C(=O)NCC(O)CO)c1I` (stereo not shown) [iomeprol], which “percentage of individuals with onset of contrast nephropathy” value (C57BL/6J mice; 200 μL iomeprol + 100 μL normal saline, 48 h after medication) is on record?
A: 27%

Q: What about the “KIM-1 expression in kidney tissue (immunostaining)” value (C57BL/6J mice; iomeprol + normal saline, individuals with increased serum creatinine, FIG. 17) of the same molecule?
A: widely expressed, mainly in the S1 and S2 segments

Q: What about the “PAS staining of kidney tissue” value (C57BL/6J mice; iomeprol + normal saline, individuals with increased serum creatinine, FIG. 19) of the same molecule?
A: formation of vacuoles in renal proximal tubular epithelial cells was observed

Q: And the “binding of protein of interest to contrast solid phased on beads (WB band, heat-eluted samples)” value [1]?
A: bound in a specific manner
